Experimental data reported in the Kinase Knowledgebase extract (Sharma et al. 2016).

Biological target: EGFR (UniProt P00533)
Sequence (P00533 whole entry, looked up): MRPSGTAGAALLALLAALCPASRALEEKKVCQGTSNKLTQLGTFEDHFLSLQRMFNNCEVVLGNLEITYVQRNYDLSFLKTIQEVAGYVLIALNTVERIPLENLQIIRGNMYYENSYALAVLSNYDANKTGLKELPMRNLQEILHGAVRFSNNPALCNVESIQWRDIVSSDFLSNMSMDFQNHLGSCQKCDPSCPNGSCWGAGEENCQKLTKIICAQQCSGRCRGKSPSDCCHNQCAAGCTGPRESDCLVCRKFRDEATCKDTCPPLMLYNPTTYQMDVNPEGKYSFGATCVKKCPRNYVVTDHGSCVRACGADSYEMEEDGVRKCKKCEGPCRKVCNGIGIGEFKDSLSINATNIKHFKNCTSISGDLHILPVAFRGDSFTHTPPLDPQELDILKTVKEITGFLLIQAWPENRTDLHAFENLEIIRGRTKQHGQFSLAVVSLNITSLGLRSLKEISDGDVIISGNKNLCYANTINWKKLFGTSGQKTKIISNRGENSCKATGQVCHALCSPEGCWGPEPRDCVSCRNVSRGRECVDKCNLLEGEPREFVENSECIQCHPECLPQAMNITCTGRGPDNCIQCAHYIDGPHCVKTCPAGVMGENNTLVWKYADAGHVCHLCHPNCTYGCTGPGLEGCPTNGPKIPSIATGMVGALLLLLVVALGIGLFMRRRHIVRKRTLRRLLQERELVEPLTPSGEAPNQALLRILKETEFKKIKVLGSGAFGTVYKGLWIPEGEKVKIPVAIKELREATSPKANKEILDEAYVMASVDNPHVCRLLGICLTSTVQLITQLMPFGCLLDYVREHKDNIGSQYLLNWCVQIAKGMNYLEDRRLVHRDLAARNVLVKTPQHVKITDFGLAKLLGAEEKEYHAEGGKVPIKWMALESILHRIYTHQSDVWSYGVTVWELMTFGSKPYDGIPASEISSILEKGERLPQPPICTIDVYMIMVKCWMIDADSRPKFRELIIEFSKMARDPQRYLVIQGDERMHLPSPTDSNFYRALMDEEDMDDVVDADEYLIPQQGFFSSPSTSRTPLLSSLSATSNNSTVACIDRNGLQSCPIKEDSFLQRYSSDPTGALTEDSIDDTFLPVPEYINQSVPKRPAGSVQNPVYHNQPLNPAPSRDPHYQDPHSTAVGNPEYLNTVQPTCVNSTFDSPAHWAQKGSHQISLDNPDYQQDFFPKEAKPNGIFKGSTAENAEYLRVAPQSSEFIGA

- IC50: ≤ 10 µM
Structure (SMILES): Fc1cccc(COc2ccc(Nc3ncncc3C#Cc3cccs3)cc2Cl)c1
